Legend:
A549 = experiment: MTT cytotoxicity on various cancer cells (Table 1); format: cell-based, human; conditions: lung cancer cell line A549; MTT, 48 h
Protocol: (§1) To evaluate anticancer activities of the produced peptides on various types of cancer cells, MTT analysis was performed. Human prostate cancer cell lines (LNCaP, PC3, and DU145), human breast cancer cell lines (MDA-MB-231 and MCF-7), lung cancer cell line (A549), and ovarian cancer cell line (SKOV3) were cultured in RPMI media supplemented with 1% penicillin/streptomycin and 1% fetal bovine serum (all from Life Technologies, Grand Island, NY). The cells were seeded in 96-well plates containing 100 μL of growth media for 24 h. The media were removed, and then 100 μL of the peptide (solvent DPBS) at each concentration was added to each well and incubated at 37° C. for 48 h. After incubation for 48 h, 100 μL of MTT reagent was added to each well. The cells were incubated at 37° C. for 4 h, and then the supernatant was removed. Formazan crystals were dissolved in 100 μL of DMSO with gentle stirring at 37° C. for 10 min. The absorbance per well was measured at 540 nm using a VERSA max microplate reader (Molecular Devices Corp.).

DU145 = experiment: MTT cytotoxicity on various cancer cells (Table 1); format: cell-based, human; conditions: prostate cancer cell line DU145; MTT, 48 h
Protocol: as §1

PC3 = experiment: MTT cytotoxicity on various cancer cells (Table 1); format: cell-based, human; conditions: prostate cancer cell line PC3; MTT, 48 h
Protocol: as §1

SKOV3 = experiment: MTT cytotoxicity on various cancer cells (Table 1); format: cell-based, human; conditions: ovarian cancer cell line SKOV3; MTT, 48 h
Protocol: as §1

[1] = test system: prostate cancer cell line (LNCaP); experiment: MTT cytotoxicity comparison of peptides at the same concentration (FIG. 6); format: cell-based, human; conditions: 300 μM, 48 h, 1% FBS, among GV1001, GnRH, HS1001, HS1002
Protocol: The prostate cancer cell line (LNCaP), in which the reactivity of HS1002 to hTERT had been best, were used to investigate the cytotoxic effects of GV1001, GnRH, HS1001, and HS1002 under conditions of 1,500 cells/well, 1% FBS, and 48-hour treatment. The prostate cancer cells were seeded at 1.5×10^3 cells per well in a 96-well plate, and then incubated in an incubator for one day. Thereafter, the cells were treated with HS1001, HS1002, GV1001, and GnRH diluted to (300, 200, 100, and 50 μM) in fresh media. After 48-h incubation, an MTT reagent (3-(4,5-dimethylthiazol-2-yl)-2,5-diphenyltetrazolium bromide, Sigma-Aldrich, M6494) was added, and subsequently the plate was shielded from light and kept in an incubator for 3 h. Thereafter, the MTT solution was discarded, and 100 μL of dimethyl sulfoxide (DMSO, 99.9%, HPLC grade, DAEJUNG CHEMICALS & METALS, 3047-2304) was added to each well, and subsequently the plate was shielded from light and then left at room temperature for 20 min. After that, the absorbance was measured at 540 nm using a microplate reader.

HEK293-Vector cells = experiment: Intracellular calcium flux assay, mock-transfected cells; format: cell-based, human; conditions: 1 and 10 nM
Protocol: (§2) Human embryonic kidney cell line (HEK293), and mouse cancer cell lines (MC38, 4T1) were purchased from the American Type Culture Collection (Manassas, VA, USA). All cell lines were grown in Dulbecco's Modified Essential Medium (DMEM) or Roswell Park Memorial Institute (RPMI) 1640 supplemented with 10% FBS, 100 U/mL penicillin, and 100 μg/mL streptomycin (WelGENE, Daegu, South Korea) in a humidified atmosphere of 5% CO2 at 37° C. To obtain GnRHR-overexpressing HEK293 (HEK293-GnRHR) cells, transfection of the pCMV-AC-GFP-GnRHR vector (HEK293-GnRHR) was performed using Lipofectamine™ 3000 according to the manufacturer's instructions (Cat. 100022052, Thermo Fisher Scientific, Waltham, MA, USA). Colonies of geneticin-resistant cells were selected by adding G418 (800 μg/mL, Sigma) to the culture medium. The HEK293-pCMV-AC-GFP vector (HEK293-Vector) cells were used as a mock-transfection group.
Intracellular calcium mobilization was measured using the Calcium Flux Assay Kit (Cat. ab233472, abcam) in response to different concentrations of each peptide. The percentage increase was calculated relative to basal fluorescence intensity. The experiment was performed in triplicate.

HEK293-GnRHR cells = target: T1, HEK293-GnRHR cells (Homo sapiens, UniProt P30968); experiment: CRE-luciferase reporter assay; format: cell-based
T1 construct: GFP; expressed in transfected cells
T1 sequence (P30968 1-328): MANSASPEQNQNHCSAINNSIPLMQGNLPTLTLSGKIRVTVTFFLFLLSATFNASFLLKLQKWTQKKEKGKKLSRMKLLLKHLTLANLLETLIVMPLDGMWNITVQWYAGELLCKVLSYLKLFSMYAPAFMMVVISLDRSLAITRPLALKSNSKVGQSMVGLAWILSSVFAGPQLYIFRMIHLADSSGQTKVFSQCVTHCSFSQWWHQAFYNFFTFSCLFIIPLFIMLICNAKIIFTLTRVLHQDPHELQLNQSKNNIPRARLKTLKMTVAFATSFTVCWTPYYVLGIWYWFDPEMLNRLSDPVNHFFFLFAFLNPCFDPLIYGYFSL
Protocol: as §2
The HEK293-pCMV6-AC-GFP and HEK293-GnRHR cells (4×10^4 cells/well) were grown in 96-well plates and co-transfected with a luciferase reporter plasmid containing a cAMP response element (CRE) using Lipofectamine 3000 (Life Technologies). The transfected cells were exposed to different concentrations of peptide for 24 h, and the promoter activity was measured by a dual-luciferase reporter assay system (BPS Bioscience). The firefly and Renilla luciferase activities were measured using a microplate luminometer (Thermo, Varioskan LUX Multimode Microplate Reader). The calculation of relative luciferase activities involved the normalization of the firefly luciferase activity […].

CCNC(=O)[C@@H]1CCCN1C(=O)[C@@H](NC(=O)[C@H](Cc1ccccc1)NC(=O)[C@H](CCCNC(=N)N)NC(=O)[C@H](CC(C)C)NC(=O)[C@H](CCCNC(=N)N)NC(=O)[C@H](Cc1ccc(O)cc1)NC(=O)[C@H](CO)NC(=O)[C@H](Cc1c[nH]c2ccccc12)NC(=O)[C@H](Cc1c[nH]cn1)NC(=O)[C@@H]1CCC(=O)N1)[C@@H](C)CC [HS1002]
Cytotoxicity (IC50) A549 (A549): 7.94 ± 0.07 µg/mL
Cytotoxicity (IC50) DU145 (DU145): 5.23 ± 0.65 µg/mL
Cytotoxicity (IC50) PC3 (PC3): 7.56 ± 0.61 µg/mL
Cytotoxicity (IC50) SKOV3 (SKOV3): 4.91 ± 0.41 µg/mL
cytotoxicity to prostate cancer cells [1]: cytotoxicity to prostate cancer cells was highest
calcium flux (HEK293-Vector cells): increased calcium flux
CRE-luciferase activity compared to the control (HEK293-GnRHR cells; 10 μM): 2 fold
cAMP-mediated promoter binding activity (CRE-luciferase), concentration dependence (HEK293-GnRHR cells; 24 h): concentration-dependently enhanced

— US20240247031A1, “COMPOSITION FOR TREATING CANCER CONTAINING TELOMERASE-TARGETING GNRH ANTAGONIST-DERIVED PEPTIDE HS1002” (Research & Business Foundation Sungkyunkwan University, priority 2023, published 2024)
